# Measurements taken from patent US20240041991A1, “STABLE LIQUID DISPERSINB COMPOSITIONS” (KANE BIOTECH INC., priority 2020, published 2024).
# Read-outs that look alike come from different tables or passages of the source. Marks after values point to notes of the source that are not given here.
# Test system: DispersinB
# Assay type: biochemical, Aggregatibacter actinomycetemcomitans
# Conditions: polyol % as in label
# Protocol: Samples from each formula was incubated at 3 different temperatures (42° C., 52° C. and 62° C.) for 3 hours. Following a 3 hour incubation, the samples were brought to room temperature for enzymatic activity assay.
# Two-tailed paired T-test was performed by to compare each polyol containing treatment with the treatment devoid of polyol. Treatment with probability values (p) less than 5% (0.05) was considered significant.
compound,measurement,setting,value
"OC[C@@H](O)[C@@H](O)CO [Erythritol, (2R,3S)-Butane-1,2,3,4-tetrol]",% enzymatic activity of DispersinB (Mean),"4° C., freshly made control without polyol = 100%, listed as 1% Erythritol",105%
same,% enzymatic activity of DispersinB (Mean),"4° C., freshly made control without polyol = 100%, listed as 2.5% Erythritol",97%
same,% enzymatic activity of DispersinB (Mean),"4° C., freshly made control without polyol = 100%, listed as 5% Erythritol",101%
same,% enzymatic activity of DispersinB (Mean),"4° C., freshly made control without polyol = 100%, listed as 10% Erythritol",97%
same,% enzymatic activity of DispersinB (Mean),"4° C., freshly made control without polyol = 100%, listed as 15% Erythritol",96%
same,% enzymatic activity of DispersinB (Mean),"4° C., freshly made control without polyol = 100%, listed as 20% Erythritol",104%
same,% enzymatic activity of DispersinB (Mean),"4° C., freshly made control without polyol = 100%, listed as 25% Erythritol",109%
same,% enzymatic activity of DispersinB (Mean),"42° C. for 3 hours, control without polyol = 100%, listed as 1% Erythritol",109* %
same,% enzymatic activity of DispersinB (Mean),"42° C. for 3 hours, control without polyol = 100%, listed as 2.5% Erythritol",107* %
same,% enzymatic activity of DispersinB (Mean),"42° C. for 3 hours, control without polyol = 100%, listed as 5% Erythritol",106* %
same,% enzymatic activity of DispersinB (Mean),"42° C. for 3 hours, control without polyol = 100%, listed as 10% Erythritol",107* %
same,% enzymatic activity of DispersinB (Mean),"42° C. for 3 hours, control without polyol = 100%, listed as 15% Erythritol",119* %
same,% enzymatic activity of DispersinB (Mean),"42° C. for 3 hours, control without polyol = 100%, listed as 20% Erythritol",113* %
same,% enzymatic activity of DispersinB (Mean),"42° C. for 3 hours, control without polyol = 100%, listed as 25% Erythritol",117* %
same,% enzymatic activity of DispersinB (Mean),"52° C. for 3 hours, control without polyol = 100%, listed as 1% Erythritol",6* %
same,% enzymatic activity of DispersinB (Mean),"52° C. for 3 hours, control without polyol = 100%, listed as 2.5% Erythritol",20* %
same,% enzymatic activity of DispersinB (Mean),"52° C. for 3 hours, control without polyol = 100%, listed as 5% Erythritol",33* %
same,% enzymatic activity of DispersinB (Mean),"52° C. for 3 hours, control without polyol = 100%, listed as 10% Erythritol",58* %
same,% enzymatic activity of DispersinB (Mean),"52° C. for 3 hours, control without polyol = 100%, listed as 15% Erythritol",78* %
same,% enzymatic activity of DispersinB (Mean),"52° C. for 3 hours, control without polyol = 100%, listed as 20% Erythritol",95* %
same,% enzymatic activity of DispersinB (Mean),"52° C. for 3 hours, control without polyol = 100%, listed as 25% Erythritol",121* %
same,% enzymatic activity of DispersinB (Mean),"62° C. for 3 hours, control without polyol = 100%, listed as 1% Erythritol",0%
same,% enzymatic activity of DispersinB (Mean),"62° C. for 3 hours, control without polyol = 100%, listed as 2.5% Erythritol",0%
same,% enzymatic activity of DispersinB (Mean),"62° C. for 3 hours, control without polyol = 100%, listed as 5% Erythritol",0%
same,% enzymatic activity of DispersinB (Mean),"62° C. for 3 hours, control without polyol = 100%, listed as 10% Erythritol",0%
same,% enzymatic activity of DispersinB (Mean),"62° C. for 3 hours, control without polyol = 100%, listed as 15% Erythritol",0%
same,% enzymatic activity of DispersinB (Mean),"62° C. for 3 hours, control without polyol = 100%, listed as 20% Erythritol",0%
same,% enzymatic activity of DispersinB (Mean),"62° C. for 3 hours, control without polyol = 100%, listed as 25% Erythritol",20* %
"OC[C@@H](O)[C@@H](O)[C@H](O)[C@H](O)CO[C@H]1O[C@H](CO)[C@@H](O)[C@H](O)[C@H]1O [Isomalt, (2R,3R,4R,5R)-6-[[(2S,3R,4S,5S,6R)-3,4,5-Trihydroxy-6-(hydroxymethyl)-2-tetrahydropyranyl]oxy]hexane-1,2,3,4,5-pentol]",% enzymatic activity of DispersinB (Mean),"4° C., freshly made control without polyol = 100%, listed as 1% Isomalt",105%
same,% enzymatic activity of DispersinB (Mean),"4° C., freshly made control without polyol = 100%, listed as 2.5% Isomalt",105%
same,% enzymatic activity of DispersinB (Mean),"4° C., freshly made control without polyol = 100%, listed as 3% Isomalt",106%
same,% enzymatic activity of DispersinB (Mean),"4° C., freshly made control without polyol = 100%, listed as 5% Isomalt",107%
same,% enzymatic activity of DispersinB (Mean),"4° C., freshly made control without polyol = 100%, listed as 10% Isomalt",106%
same,% enzymatic activity of DispersinB (Mean),"4° C., freshly made control without polyol = 100%, listed as 15% Isomalt",101%
same,% enzymatic activity of DispersinB (Mean),"4° C., freshly made control without polyol = 100%, listed as 20% Isomalt",102%
same,% enzymatic activity of DispersinB (Mean),"42° C. for 3 hours, control without polyol = 100%, listed as 1% Isomalt",102* %
same,% enzymatic activity of DispersinB (Mean),"42° C. for 3 hours, control without polyol = 100%, listed as 2.5% Isomalt",100* %
same,% enzymatic activity of DispersinB (Mean),"42° C. for 3 hours, control without polyol = 100%, listed as 3% Isomalt",100* %
same,% enzymatic activity of DispersinB (Mean),"42° C. for 3 hours, control without polyol = 100%, listed as 5% Isomalt",99* %
same,% enzymatic activity of DispersinB (Mean),"42° C. for 3 hours, control without polyol = 100%, listed as 10% Isomalt",107* %
same,% enzymatic activity of DispersinB (Mean),"42° C. for 3 hours, control without polyol = 100%, listed as 15% Isomalt",106* %
same,% enzymatic activity of DispersinB (Mean),"42° C. for 3 hours, control without polyol = 100%, listed as 20% Isomalt",107* %
same,% enzymatic activity of DispersinB (Mean),"52° C. for 3 hours, control without polyol = 100%, listed as 1% Isomalt",2%
same,% enzymatic activity of DispersinB (Mean),"52° C. for 3 hours, control without polyol = 100%, listed as 2.5% Isomalt",3%
same,% enzymatic activity of DispersinB (Mean),"52° C. for 3 hours, control without polyol = 100%, listed as 3% Isomalt",4* %
same,% enzymatic activity of DispersinB (Mean),"52° C. for 3 hours, control without polyol = 100%, listed as 5% Isomalt",11* %
same,% enzymatic activity of DispersinB (Mean),"52° C. for 3 hours, control without polyol = 100%, listed as 10% Isomalt",37* %
same,% enzymatic activity of DispersinB (Mean),"52° C. for 3 hours, control without polyol = 100%, listed as 15% Isomalt",82* %
same,% enzymatic activity of DispersinB (Mean),"52° C. for 3 hours, control without polyol = 100%, listed as 20% Isomalt",102* %
same,% enzymatic activity of DispersinB (Mean),"62° C. for 3 hours, control without polyol = 100%, listed as 1% Isomalt",0%
same,% enzymatic activity of DispersinB (Mean),"62° C. for 3 hours, control without polyol = 100%, listed as 2.5% Isomalt",0%
same,% enzymatic activity of DispersinB (Mean),"62° C. for 3 hours, control without polyol = 100%, listed as 3% Isomalt",0%
same,% enzymatic activity of DispersinB (Mean),"62° C. for 3 hours, control without polyol = 100%, listed as 5% Isomalt",0%
same,% enzymatic activity of DispersinB (Mean),"62° C. for 3 hours, control without polyol = 100%, listed as 10% Isomalt",0%
same,% enzymatic activity of DispersinB (Mean),"62° C. for 3 hours, control without polyol = 100%, listed as 15% Isomalt",12* %
same,% enzymatic activity of DispersinB (Mean),"62° C. for 3 hours, control without polyol = 100%, listed as 20% Isomalt",6* %
